Experimental data published in patent US20260262643A1, “HERBICIDAL BENZOXAZINES” (FMC CORPORATION, priority 2022, published 2026).

Assays:
green foxtail [1] = assay: Test C postemergence; format: in vivo, Setaria viridis; conditions: 10 days
Summary of the method: (§1)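 Seeds sown in loam soil–sand blend received a directed preemergence soil spray of test chemical in non-phytotoxic solvent with surfactant; postemergence plants (2–10 cm, one- to two-leaf stage) were sprayed with the same formulation. Greenhouse-held 10 days, then visually rated for injury versus untreated controls, 0 (no effect) to 100 (complete control).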

kochia [2] = assay: Test C postemergence; format: in vivo, Bassia scoparia; conditions: 10 days
Summary of the method: as §1

barnyardgrass [3] = assay: Test C postemergence; format: in vivo, Echinochloa crusgalli; conditions: 10 days
Summary of the method: as §1

corn [4] = assay: Test C preemergence; format: in vivo, Zea mays; conditions: for Plant response rating, Corn: Preemergence; for Corn plant response rating: preemergence
Summary of the method: as §1

oat, wild [5] = assay: Test C preemergence; format: in vivo, Avena fatua; conditions: for Plant response rating, Oat, Wild: Preemergence; for Oat, Wild plant response rating: preemergence
Summary of the method: as §1

ducksalad = assay: Test D flooded paddy test; format: in vivo, Heteranthera limosa; conditions: 250 g ai/ha, applied to paddy water, visual rating after 13 to 14 days, scale 0 to 100 (0 no effect, 100 complete control)
Summary of the method: (§2)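 Compounds go straight into paddy water over 2-leaf plants in pots flooded to 3 cm. Greenhouse holding lasts 13 to 14 days. Injury is scored by eye against controls from 0 (none) to 100 (complete control).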

soybean [6] = assay: Test C preemergence; format: in vivo, Glycine max; conditions: for Plant response rating, Soybean: Preemergence; for Soybean plant response rating: preemergence
Summary of the method: as §1

ryegrass, Italian [7] = assay: Test C postemergence; format: in vivo, Lolium multiflorum; conditions: 10 days
Summary of the method: as §1

wheat [8] = assay: Test C preemergence; format: in vivo, Triticum aestivum; conditions: for Plant response rating, Wheat: Preemergence; for Wheat plant response rating: preemergence
Summary of the method: as §1

sedge, umbrella = assay: Test D flooded paddy test; format: in vivo, Cyperus difformis; conditions: 250 g ai/ha, applied to paddy water, visual rating after 13 to 14 days, scale 0 to 100 (0 no effect, 100 complete control)
Summary of the method: as §2

pigweed, palmer [9] = assay: Test C postemergence; format: in vivo, Amaranthus palmeri; conditions: 10 days
Summary of the method: as §1

wheat [10] = assay: Test C postemergence; format: in vivo, Triticum aestivum; conditions: 10 days
Summary of the method: as §1

galium = assay: Test C postemergence; format: in vivo, Galium aparine; conditions: 10 days
Summary of the method: as §1

ragweed [11] = assay: Test C preemergence; format: in vivo, Ambrosia artemisiifolia; conditions: for Plant response rating, Ragweed: Preemergence; for Ragweed plant response rating: preemergence
Summary of the method: as §1

barnyardgrass [12] = assay: Test C preemergence; format: in vivo, Echinochloa crusgalli; conditions: for Plant response rating, Barnyardgrass: Preemergence; for Barnyardgrass plant response rating: preemergence
Summary of the method: as §1

rice = assay: Test D flooded paddy test; format: in vivo, Oryza sativa; conditions: 250 g ai/ha, applied to paddy water, visual rating after 13 to 14 days, scale 0 to 100 (0 no effect, 100 complete control)
Summary of the method: as §2

horseweed = assay: Test C postemergence; format: in vivo, Erigeron canadensis; conditions: 10 days
Summary of the method: as §1

oat, wild [13] = assay: Test C postemergence; format: in vivo, Avena fatua; conditions: 10 days
Summary of the method: as §1

blackgrass [14] = assay: Test C postemergence; format: in vivo, Alopecurus myosuroides; conditions: 10 days
Summary of the method: as §1

pigweed, palmer [15] = assay: Test C preemergence; format: in vivo, Amaranthus palmeri; conditions: for Plant response rating, Pigweed, Palmer: Preemergence; for Pigweed, Palmer plant response rating: preemergence
Summary of the method: as §1

corn [16] = assay: Test C postemergence; format: in vivo, Zea mays; conditions: 10 days
Summary of the method: as §1

ragweed [17] = assay: Test C postemergence; format: in vivo, Ambrosia artemisiifolia; conditions: 10 days
Summary of the method: as §1

green foxtail [18] = assay: Test C preemergence; format: in vivo, Setaria viridis; conditions: for Plant response rating, Foxtail, Green: Preemergence; for Foxtail, Green plant response rating: preemergence
Summary of the method: as §1

kochia [19] = assay: Test C preemergence; format: in vivo, Bassia scoparia; conditions: for Plant response rating, Kochia: Preemergence; for Kochia plant response rating: preemergence
Summary of the method: as §1

barnyardgrass [20] = assay: Test D flooded paddy test; format: in vivo, Echinochloa crus-galli; conditions: 250 g ai/ha, applied to paddy water, visual rating after 13 to 14 days, scale 0 to 100 (0 no effect, 100 complete control)
Summary of the method: as §2

blackgrass [21] = assay: Test C preemergence; format: in vivo, Alopecurus myosuroides; conditions: for Plant response rating, Blackgrass: Preemergence; for Blackgrass plant response rating: preemergence
Summary of the method: as §1

ryegrass, Italian [22] = assay: Test C preemergence; format: in vivo, Lolium multiflorum; conditions: for Plant response rating, Ryegrass, Italian: Preemergence; for Ryegrass, Italian plant response rating: preemergence
Summary of the method: as §1

soybean [23] = assay: Test C postemergence; format: in vivo, Glycine max; conditions: 10 days
Summary of the method: as §1

[24] = 125 g ai/ha, postemergence, 0 to 100 scale, 0 no effect, 100 complete control
[25] = Postemergence, 500 g ai/ha, visual 0 to 100 scale (0 no effect, 100 complete control)
[26] = 500 g ai/ha, visual rating after 10 days, 0 to 100 scale (0 no effect, 100 complete control)
[27] = Test C, 125 g ai/ha, 0 to 100 scale (0 no effect, 100 complete control)
[28] = 500 g ai/ha, postemergence, 0 to 100 scale (0 no effect, 100 complete control)
[29] = Postemergence, 125 g ai/ha, 0 to 100 scale (0 no effect, 100 complete control)
[30] = 500 g ai/ha, 0 to 100 scale (0 no effect, 100 complete control)
[31] = 125 g ai/ha, 0 to 100 scale, 0 no effect, 100 complete control

## COc1ccc(-n2cncn2)cc1C(=O)N1C[C@H](C)Oc2ccccc21 [Compound 228]
Green foxtail [1]; [24]
  Plant response rating, Foxtail, Green: 30
Green foxtail [1]; [25]
  Plant response rating, Foxtail, Green: 90
Kochia [2]; [24]
  Plant response rating, Kochia: 50
Kochia [2]; [25]
  Plant response rating, Kochia: 70
Barnyardgrass [3]; [24]
  Plant response rating, Barnyardgrass: 60
Barnyardgrass [3]; [25]
  Plant response rating, Barnyardgrass: 90
Corn [4]; [26]
  Plant response rating, Corn: 60
Corn [4]; [27]
  Corn plant response rating: 10
oat, wild [5]; [26]
  Plant response rating, Oat, Wild: 90
oat, wild [5]; [27]
  Oat, Wild plant response rating: 40
ducksalad
  Plant response rating, Ducksalad (Flood): 80
Soybean [6]; [26]
  Plant response rating, Soybean: 90
Soybean [6]; [27]
  Soybean plant response rating: 70
ryegrass, Italian [7]; [24]
  Plant response rating, Ryegrass, Italian: 100
ryegrass, Italian [7]; [25]
  Plant response rating, Ryegrass, Italian: 100
Wheat [8]; [26]
  Plant response rating, Wheat: 30
Wheat [8]; [27]
  Wheat plant response rating: 20
sedge, umbrella
  Plant response rating, Sedge, Umbrella (Flood): 95
pigweed, palmer [9]; [24]
  Plant response rating, Pigweed, Palmer: 70
pigweed, palmer [9]; [25]
  Plant response rating, Pigweed, Palmer: 90
Wheat [10]; [24]
  Plant response rating, Wheat: 50
Wheat [10]; [25]
  Plant response rating, Wheat: 90
galium; [24]
  Plant response rating, Galium: 100
galium; [25]
  Plant response rating, Galium: 100
Ragweed [11]; [26]
  Plant response rating, Ragweed: 50
Ragweed [11]; [27]
  Ragweed plant response rating: 40
Barnyardgrass [12]; [26]
  Plant response rating, Barnyardgrass: 100
Barnyardgrass [12]; [27]
  Barnyardgrass plant response rating: 90
rice
  Plant response rating, Rice (Flood): 25
horseweed; [24]
  Plant response rating, Horseweed: 10
horseweed; [25]
  Plant response rating, Horseweed: 30
oat, wild [13]; [24]
  Plant response rating, Oat, Wild: 30
oat, wild [13]; [25]
  Plant response rating, Oat, Wild: 80
Blackgrass [14]; [24]
  Plant response rating, Blackgrass: 80
Blackgrass [14]; [25]
  Plant response rating, Blackgrass: 90
pigweed, palmer [15]; [26]
  Plant response rating, Pigweed, Palmer: 100
pigweed, palmer [15]; [27]
  Pigweed, Palmer plant response rating: 100
Corn [16]; [24]
  Plant response rating, Corn: 40
Corn [16]; [25]
  Plant response rating, Corn: 80
Ragweed [17]; [24]
  Plant response rating, Ragweed: 10
Ragweed [17]; [25]
  Plant response rating, Ragweed: 30
Green foxtail [18]; [26]
  Plant response rating, Foxtail, Green: 100
Green foxtail [18]; [27]
  Foxtail, Green plant response rating: 100
Kochia [19]; [26]
  Plant response rating, Kochia: 60
Kochia [19]; [27]
  Kochia plant response rating: 0
Barnyardgrass [20]
  Plant response rating, Barnyardgrass (Flood): 15
Blackgrass [21]; [26]
  Plant response rating, Blackgrass: 90
Blackgrass [21]; [27]
  Blackgrass plant response rating: 80
ryegrass, Italian [22]; [26]
  Plant response rating, Ryegrass, Italian: 90
ryegrass, Italian [22]; [27]
  Ryegrass, Italian plant response rating: 90
Soybean [23]; [24]
  Plant response rating, Soybean: 100
Soybean [23]; [25]
  Plant response rating, Soybean: 100

## COC(C)c1ncn(-c2ccc(C)c(C(=O)N3CC(C)Oc4c(Cl)cccc43)c2)n1 (mixture of isomers) [Compound 359]
Green foxtail [1]; [28]
  Plant response rating, Foxtail, Green: 80
Green foxtail [1]; [29]
  Plant response rating, Foxtail, Green: 50
Kochia [2]; [28]
  Plant response rating, Kochia: 80
Kochia [2]; [29]
  Plant response rating, Kochia: 50
Barnyardgrass [3]; [28]
  Plant response rating, Barnyardgrass: 90
Barnyardgrass [3]; [29]
  Plant response rating, Barnyardgrass: 30
Corn [4]; [30]
  Corn plant response rating: 30
Corn [4]; [31]
  Plant response rating, Corn: 20
oat, wild [5]; [30]
  Oat, Wild plant response rating: 90
oat, wild [5]; [31]
  Plant response rating, Oat, Wild: 90
ducksalad
  Plant response rating, Ducksalad (Flood): 60
Soybean [6]; [30]
  Soybean plant response rating: 100
Soybean [6]; [31]
  Plant response rating, Soybean: 80
ryegrass, Italian [7]; [28]
  Plant response rating, Ryegrass, Italian: 100
ryegrass, Italian [7]; [29]
  Plant response rating, Ryegrass, Italian: 90
Wheat [8]; [30]
  Wheat plant response rating: 80
Wheat [8]; [31]
  Plant response rating, Wheat: 30
sedge, umbrella
  Plant response rating, Sedge, Umbrella (Flood): 65
pigweed, palmer [9]; [28]
  Plant response rating, Pigweed, Palmer: 100
pigweed, palmer [9]; [29]
  Plant response rating, Pigweed, Palmer: 60
Wheat [10]; [28]
  Plant response rating, Wheat: 90
Wheat [10]; [29]
  Plant response rating, Wheat: 30
galium; [28]
  Plant response rating, Galium: 100
galium; [29]
  Plant response rating, Galium: 100
Ragweed [11]; [30]
  Ragweed plant response rating: 100
Ragweed [11]; [31]
  Plant response rating, Ragweed: 0
Barnyardgrass [12]; [30]
  Barnyardgrass plant response rating: 100
Barnyardgrass [12]; [31]
  Plant response rating, Barnyardgrass: 100
rice
  Plant response rating, Rice (Flood): 10
horseweed; [28]
  Plant response rating, Horseweed: 90
horseweed; [29]
  Plant response rating, Horseweed: 70
oat, wild [13]; [28]
  Plant response rating, Oat, Wild: 90
oat, wild [13]; [29]
  Plant response rating, Oat, Wild: 60
Blackgrass [14]; [28]
  Plant response rating, Blackgrass: 100
Blackgrass [14]; [29]
  Plant response rating, Blackgrass: 60
pigweed, palmer [15]; [30]
  Pigweed, Palmer plant response rating: 100
pigweed, palmer [15]; [31]
  Plant response rating, Pigweed, Palmer: 90
Corn [16]; [28]
  Plant response rating, Corn: 80
Corn [16]; [29]
  Plant response rating, Corn: 40
Ragweed [17]; [28]
  Plant response rating, Ragweed: 80
Ragweed [17]; [29]
  Plant response rating, Ragweed: 60
Green foxtail [18]; [30]
  Foxtail, Green plant response rating: 100
Green foxtail [18]; [31]
  Plant response rating, Foxtail, Green: 100
Kochia [19]; [30]
  Kochia plant response rating: 100
Kochia [19]; [31]
  Plant response rating, Kochia: 100
Barnyardgrass [20]
  Plant response rating, Barnyardgrass (Flood): 15
Blackgrass [21]; [30]
  Blackgrass plant response rating: 100
Blackgrass [21]; [31]
  Plant response rating, Blackgrass: 80
ryegrass, Italian [22]; [30]
  Ryegrass, Italian plant response rating: 100
ryegrass, Italian [22]; [31]
  Plant response rating, Ryegrass, Italian: 90
Soybean [23]; [28]
  Plant response rating, Soybean: 100
Soybean [23]; [29]
  Plant response rating, Soybean: 100
